The values that follow come from patent publication US9914730B2, “Azaquinazoline inhibitors of Atypical protein Kinase C” (Ignyta, Inc., priority 2012, dated 2018).

The target in this assay is T1, full-length human PKCι (Homo sapiens, UniProt P41743).
T1 construct: Recombinant, full-length human PKCι expressed in Sf21 insect cells is also commercially available; purchased; host or cells: Sf21 insect cells
T1 sequence (P41743 1-596): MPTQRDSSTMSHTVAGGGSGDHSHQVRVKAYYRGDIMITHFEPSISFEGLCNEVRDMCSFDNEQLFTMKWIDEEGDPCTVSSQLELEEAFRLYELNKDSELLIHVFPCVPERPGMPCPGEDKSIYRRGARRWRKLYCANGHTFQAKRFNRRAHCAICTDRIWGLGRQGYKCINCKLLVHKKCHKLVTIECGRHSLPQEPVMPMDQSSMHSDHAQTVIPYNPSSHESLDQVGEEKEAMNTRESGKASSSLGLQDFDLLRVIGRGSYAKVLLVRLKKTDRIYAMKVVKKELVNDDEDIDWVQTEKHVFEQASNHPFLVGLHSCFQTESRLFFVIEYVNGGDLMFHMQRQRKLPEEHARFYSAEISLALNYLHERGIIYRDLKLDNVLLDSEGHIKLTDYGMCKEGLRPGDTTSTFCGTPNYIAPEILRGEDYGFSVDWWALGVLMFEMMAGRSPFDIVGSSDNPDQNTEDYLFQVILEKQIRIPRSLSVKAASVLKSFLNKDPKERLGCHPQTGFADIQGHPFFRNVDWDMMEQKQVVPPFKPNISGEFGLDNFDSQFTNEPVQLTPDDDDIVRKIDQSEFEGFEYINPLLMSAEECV
The experiment in a line: PKCι IC50 IMAP assay, full-length PKCι at 150 μM ATP. The assay is classed as biochemical. To be noted: read-out: IC50 in IMAP assay against full length PKCi at 150 μM ATP. A digest of the protocol: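 Recombinant full-length human PKCι (Sf21-expressed, typically 15 pM) phosphorylated 100 nM 5FAM-labelled PKCε pseudosubstrate-derived peptide with 150 μM ATP (5× KM^APP) in 18 mM tris-HCl pH7.5, 9 mM MgCl2, EGTA, DTT, 4% DMSO. After 60 min at room temperature, IMAP binding reagent was added for 2 h and fluorescence polarisation read.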

Turning to `CN[C@H](CNc1nc(-c2ccncc2)nc2cnccc12)Cc1ccccc1` [Example 80, methyl[(2S)-1-phenyl-3-{[2-(pyridin-4-yl)pyrido[3,4-d]pyrimidin-4-yl]amino}propan-2-yl]amine], the IC50 was in the range of 100 to 1000 nM.

For `Cc1ccc(Cl)c(Nc2cc(-c3nc(N4CCNCC4)c4c(C5CC5)cncc4n3)ccn2)c1F` [Example 617, (6-Chloro-2-fluoro-3-methyl-phenyl)-[4-(5-cyclopropyl-4-piperazin-1-yl-pyrido[3,4-d]pyrimidin-2-yl)-pyridin-2-yl]-amine], the half-inhibitory concentration (IC50) was less than 100 nM. Then `FC(F)(F)[C@@H]1CN(c2nc(-c3ccnc4[nH]ccc34)nc3cncc(C4CC4)c23)CCN1` [Example 1214, 5-Cyclopropyl-2-(1H-pyrrolo[2,3-b]pyridin-4-yl)-4-((S)-3-trifluoromethyl-piperazin-1-yl)-pyrido[3,4-d]pyrimidine], with less than 100 nM; and `CC(C)(C)c1ccc(Nc2cc(-c3nc(N4CCNCC4)c4c(C5CC5)cncc4n3)ccn2)c(Cl)c1` [Example 529, (4-tert-Butyl-2-chloro-phenyl)-[4-(5-cyclopropyl-4-piperazin-1-yl-pyrido[3,4-d]pyrimidin-2-yl)-pyridin-2-yl]-amine], with less than 100 nM; and `Fc1cc(-c2nc(N3CCNCC3)c3c(C4CC4)cncc3n2)ccn1` [Example 689, 5-Cyclopropyl-2-(2-fluoro-pyridin-4-yl)-4-piperazin-1-yl-pyrido[3,4-d]pyrimidine], with less than 100 nM. Then `CN1CCN(c2cccc(Nc3cc(-c4nc(N5CCC(O)C(O)C5)c5c(C6CC6)cncc5n4)ccn3)c2)CC1` (single isomer, unassigned) [Example 753, (3S,4S or 3R,4R)-1-(5-Cyclopropyl-2-{2-[3-(4-methyl-piperazin-1-yl)-phenylamino]-pyridin-4-yl}-pyrido[3,4-d]pyrimidin-4-yl)-piperidine-3,4-diol], with less than 100 nM; and `COCCN1CCN(c2nc(-c3ccnc(Nc4ccc(F)cc4)c3)nc3cncc(C4CC4)c23)CC1` [Example 662, (4-{5-Cyclopropyl-4-[4-(2-methoxy-ethyl]-piperazin-1-yl]-pyrido[3,4-d]pyrimidin-2-yl}-pyridin-2-yl)-(4-fluoro-phenyl)-amine], with 1000 to 10000 nM. Then `COc1cncc2nc(-c3ccnc(Nc4ccc(C(N)=O)cn4)c3)nc(N3CCNCC3)c12` [Example 380, 6-[4-(5-Methoxy-4-piperazin-1-yl-pyrido[3,4-d]pyrimidin-2-yl)-pyridin-2-ylamino]-nicotinamide], with less than 100 nM; and `COc1cc(N2CCOCC2)ccc1Nc1cc(-c2nc(N[C@@H]3CCNC3)c3ccncc3n2)ccn1` [Example 358, {2-[2-(2-Methoxy-4-morpholin-4-yl-phenylamino)-pyridin-4-yl]-pyrido[3,4-d]pyrimidin-4-yl}-(R)-pyrrolidin-3-yl-amine], with 100 to 1000 nM; and `Nc1nccc2c(NC[C@@H](N)Cc3ccccc3)nc(N3CCOCC3)nc12` [Example 1013, N^4-((S)-2-Amino-3-phenyl-propyl)-2-morpholin-4-yl-pyrido[3,4-d]pyrimidine-4,8-diamine], with 100 to 1000 nM. For `COc1ccc(Nc2cc(-c3nc(N4CCNCC4)c4c(C5CC5)cncc4n3)ccn2)cc1OC` [Example 610, [4-(5-Cyclopropyl-4-piperazin-1-yl-pyrido[3,4-d]pyrimidin-2-yl)-pyridin-2-yl]-(3,4-dimethoxy-phenyl)-amine], the IC50 is less than 100 nM. As to `CN1CCN(c2ccc(Nc3cc(-c4nc(N[C@@H]5CCNC5)c5ccncc5n4)ccn3)cn2)CC1` [Example 320, (2-{2-[6-(4-Methyl-piperazin-1-yl)-pyridin-3-ylamino]-pyridin-4-yl}-pyrido[3,4-d]pyrimidin-4-yl)-(R)-pyrrolidin-3-yl-amine], the IC50 was less than 100 nM.

As to `c1ccc(C[C@H]2CN(Cc3ccccc3)CCN2c2nc(-c3ccncc3)nc3cnccc23)cc1` [Example 20, (2S)-2,4-dibenzyl-1-[2-(pyridin-4-yl)-pyrido[3,4-d]-pyrimidin-4-yl]-piperazine], the IC50 lay in the range of 10000 to 40000 nM.

For the compound `C[C@H]1CN(c2nc(-c3ccnc(Nc4nc(F)c(F)cc4F)c3)nc3cncc(C4CCC4)c23)CCN1` [Example 808, {4-[5-Cyclobutyl-4-((S)-3-methyl-piperazin-1-yl)-pyrido[3,4-d]pyrimidin-2-yl]-pyridin-2-yl}-(3,5,6-trifluoro-pyridin-2-yl)-amine], the concentration for half-maximal inhibition (IC50) is less than 100 nM. With `NC(=O)C1CCN(c2nc(-c3ccnc(Nc4c(F)cccc4F)c3)nc3cncc(C4CC4)c23)CC1` [Example 656, 1-{5-Cyclopropyl-2-[2-(2,6-difluoro-phenylamino)-pyridin-4-yl]-pyrido[3,4-d]pyrimidin-4-yl}-piperidine-4-carboxylic acid amide], the IC50 fell in the range of 100 to 1000 nM. Then `Fc1cccc(F)c1Nc1cc(-c2nc(NCC3CCNCC3)c3c(C4CC4)cncc3n2)ccn1` [Example 2107, {5-Cyclopropyl-2-[2-(2,6-difluoro-phenylamino)-pyridin-4-yl]-pyrido[3,4-d]pyrimidin-4-yl}-piperidin-4-ylmethyl-amine], with less than 100 nM; and `CC(C)(C)c1cc2c(-c3nc(N4CCNC(=O)CC4)c4c(C5CC5)cncc4n3)ccnc2[nH]1` [Example 1249, 1-[2-(2-tert-Butyl-1H-pyrrolo[2,3-b]pyridin-4-yl)-5-cyclopropyl-pyrido[3,4-d]pyrimidin-4-yl]-[1,4]diazepan-5-one], with less than 100 nM; and `c1cc(-c2nc(N3CCNCC3)c3c(C4CC4)cncc3n2)cc(Nc2ccc3nonc3c2)n1` [Example 2116, Benzo[1,2,5]oxadiazol-5-yl-[4-(5-cyclopropyl-4-piperazin-1-yl-pyrido[3,4-d]pyrimidin-2-yl)-pyridin-2-yl]-amine], with less than 100 nM.

Regarding `Fc1ccnc(F)c1Nc1cc(-c2nc(N3CCNCC3)c3c(C4CC4)cncc3n2)ccn1` [Example 670, [4-(5-Cyclopropyl-4-piperazin-1-yl-pyrido[3,4-d]pyrimidin-2-yl)-pyridin-2-yl]-(2,4-difluoro-pyridin-3-yl)-amine], the 50% inhibitory concentration (IC50) was less than 100 nM. Then `CN1CCN(c2cccc(Nc3cc(-c4nc(N5CCC[C@@H](O)C5)c5c(C6CC6)cncc5n4)ccn3)n2)CC1` [Example 781, (R)-1-(5-Cyclopropyl-2-{2-[6-(4-methyl-piperazin-1-yl)-pyridin-2-ylamino]-pyridin-4-yl}-pyrido[3,4-d]pyrimidin-4-yl)-piperidin-3-ol], with 100 to 1000 nM. Then `COc1cncc2nc(-c3ccnc(NC(=O)Cc4ccc(N)cc4)c3)nc(N[C@@H]3CCNC3)c12` [Example 327, 2-(4-Amino-phenyl)-N-{4-[5-methoxy-4-((R)-pyrrolidin-3-ylamino)-pyrido[3,4-d]pyrimidin-2-yl]-pyridin-2-yl}-acetamide], with less than 100 nM; and `Fc1ccc(Cl)nc1Nc1cc(-c2nc(N3CCNCC3)c3c(C4CC4)cncc3n2)ccn1` [Example 801, (6-Chloro-3-fluoro-pyridin-2-yl)-[4-(5-cyclopropyl-4-piperazin-1-yl-pyrido[3,4-d]pyrimidin-2-yl)-pyridin-2-yl]-amine], with less than 100 nM; and `CN(C)CCN(C)c1nc(-c2ccnc(Nc3c(F)cccc3F)c2)nc2cncc(C3CC3)c12` [Example 797, N-{5-Cyclopropyl-2-[2-(2,6-difluoro-phenylamino)-pyridin-4-yl]-pyrido[3,4-d]pyrimidin-4-yl}-N,N′,N′-trimethyl-ethane-1,2-diamine], with 100 to 1000 nM.

On to `Fc1ccc(Nc2cc(-c3nc(N4CCNCC4)c4c(Cl)cncc4n3)ccn2)nc1` [Example 258, [4-(5-Chloro-4-piperazin-1-yl-pyrido[3,4-d]pyrimidin-2-yl)-pyridin-2-yl]-(5-fluoro-pyridin-2-yl)-amine], for which the concentration for half-maximal inhibition (IC50) was less than 100 nM. Regarding `Fc1ccc(F)c2c1[nH]c1nccc(-c3nc(N4CCNCC4)c4c(C5CC5)cncc4n3)c12` [Example 2027, 4-(5-Cyclopropyl-4-piperazin-1-yl-pyrido[3,4-d]pyrimidin-2-yl)-5,8-difluoro-9H-pyrido[2,3-b]indole], the IC50 is less than 100 nM. Then `Fc1cc(C2CC2)cc(F)c1Nc1cc(-c2nc(N3CCNCC3)c3c(C4CC4)cncc3n2)ccn1` [Example 603, (4-Cyclopropyl-2,6-difluoro-phenyl)-[4-(5-cyclopropyl-4-piperazin-1-yl-pyrido[3,4-d]pyrimidin-2-yl)-pyridin-2-yl]-amine], with less than 100 nM; and `CC(C)(C)OC(=O)N1CCCN(c2nc(-c3ccncc3)nc3cnccc23)CC1` [Example 23, tert-butyl 4-[2-(pyridin-4-yl)-pyrido[3,4-d]pyrimidin-4-yl]-1,4-diazepane-1-carboxylate], with 10000 to 40000 nM; and `CC1(C)CN(c2nc(-c3ccnc(Nc4ncccc4F)c3)nc3cncc(C4CC4)c23)CCN1` [Example 840, {4-[5-Cyclopropyl-4-(3,3-dimethyl-piperazin-1-yl)-pyrido[3,4-d]pyrimidin-2-yl]-pyridin-2-yl}-(3-fluoro-pyridin-2-yl)-amine], with less than 100 nM.

Broadly, the IC50 is the point on the concentration scale where inhibition reaches its midpoint.
